doi:10.1101/2021.10.07.463234v2 (biorxiv, 2021)
Counter-ions that a name gives are not always drawn.

Target: SARS-CoV-2 Mac1 (Severe acute respiratory syndrome coronavirus 2, UniProt P0DTD1)
Assay: biochemical
Conditions: for %inhibition: 100 µM, inhibitor; for inhibition at 100 µM: read-out: %inhibition

SMILES | %inhibition [%] | inhibition at 100 µM [%]
CCOC(=O)Nc1ccc(NCc2ccc(F)cc2)cc1N [Retigabine 2HCl] | 8.664 | –
CCOC(=O)Nc1ccc(NCc2ccc(F)cc2)cc1N [Retigabine] | 0 | –
NC(=O)c1ncn([C@@H]2O[C@H](CO)[C@@H](O)[C@H]2O)n1 [Ribavirin] | – | 0.0871
CN(C)C(=O)c1cc2cnc(Nc3ccc(N4CCNCC4)cn3)nc2n1C1CCCC1 [Ribociclib (LEE011)] | – | 0.852
O=C(CCCCCCNC(=O)c1cnc(N(c2ccccc2)c2ccccc2)nc1)NO [Ricolinostat (ACY-1215)] | – | 3.74
CO[C@H]1/C=C/O[C@@]2(C)Oc3c(C)c(O)c4c(c3C2=O)C2=NC3(CCN(CC(C)C)CC3)NC2=C(NC(=O)/C(C)=C\C=C\[C@H](C)[C@H](O)[C@@H](C)[C@@H](O)[C@@H](C)[C@H](OC(C)=O)[C@@H]1C)C4=O [Rifabutin] | – | 34.6
CO[C@H]1/C=C/O[C@@]2(C)Oc3c(C)c(O)c4c(O)c(c(/C=N/N5CCN(C)CC5)c(O)c4c3C2=O)NC(=O)/C(C)=C\C=C\[C@H](C)[C@H](O)[C@@H](C)[C@@H](O)[C@@H](C)[C@H](OC(C)=O)[C@@H]1C [Rifampin] | – | 31.3
CO[C@H]1/C=C/O[C@@]2(C)Oc3c(C)c(O)c4c(O)c(cc(O)c4c3C2=O)NC(=O)/C(C)=C\C=C\[C@H](C)[C@H](O)[C@@H](C)[C@@H](O)[C@@H](C)[C@H](OC(C)=O)[C@@H]1C [Rifamycin sodium salt] | – | 10.7
CO[C@H]1/C=C/O[C@@]2(C)Oc3c(C)c(O)c4c(O)c(c(/C=N/N5CCN(C6CCCC6)CC5)c(O)c4c3C2=O)NC(=O)/C(C)=C\C=C\[C@H](C)[C@H](O)[C@@H](C)[C@@H](O)[C@@H](C)[C@H](OC(C)=O)[C@@H]1C [Rifapentine] | – | 26.7
CO[C@H]1/C=C/O[C@@]2(C)Oc3c(C)c(O)c4c(O)c(c5c(nc6cc(C)ccn65)c4c3C2=O)NC(=O)/C(C)=C\C=C\[C@H](C)[C@H](O)[C@@H](C)[C@@H](O)[C@@H](C)[C@H](OC(C)=O)[C@@H]1C [Rifaximin] | – | 22.3
COc1cc(OC)c(/C=C/S(=O)(=O)Cc2ccc(OC)c(NCC(=O)O)c2)c(OC)c1 [Rigosertib (ON-01910)] | – | 0.0877
Cc1cc(/C=C/C#N)cc(C)c1Nc1ccnc(Nc2ccc(C#N)cc2)n1 [Rilpivirine] | – | 7.83
Nc1nc2ccc(OC(F)(F)F)cc2s1 [Riluzole] | – | 0
CC(N)[C@]12C[C@H]3C[C@H](C[C@H](C3)C1)C2 (stereo partly shown) [Rimantadine Hydrochloride] | – | 4.71
CC(N)C12CC3CC(CC(C3)C1)C2 (stereo not shown) [Rimantadine] | – | 28.1
Cc1c(C(=O)NN2CCCCC2)nn(-c2ccc(Cl)cc2Cl)c1-c1ccc(Cl)cc1 [Rimonabant] | – | 3.4
COC(=O)N(C)c1c(N)nc(-c2nn(Cc3ccccc3F)c3ncccc23)nc1N [Riociguat (BAY 63-2521)] | – | 21.9
C[C@H]1CNCCCN1S(=O)(=O)c1cccc2cncc(F)c12 [Ripasudil (K-115) hydrochloride dihydrate] | – | 23.9
O=P(O)(O)C(O)(Cc1cccnc1)P(=O)(O)O [Risedronate Sodium] | – | 8.32
CC(C)c1nc(CN(C)C(=O)N[C@H](C(=O)N[C@@H](Cc2ccccc2)C[C@H](O)[C@H](Cc2ccccc2)NC(=O)OCc2cncs2)C(C)C)cs1 [Ritonavir] | – | 0
O=C(NC[C@H]1CN(c2ccc(N3CCOCC3=O)cc2)C(=O)O1)c1ccc(Cl)s1 [Rivaroxaban] | – | 4.28
CCN(C)C(=O)Oc1cccc([C@H](C)N(C)C)c1 [Rivastigmine Tartrate] | 0.5521 | –
CCN(C)C(=O)Oc1cccc([C@H](C)N(C)C)c1 [Rivastigmine] | 0 | –
CN(C)CCc1c[nH]c2ccc(Cn3cncn3)cc12 [Rizatriptan Benzoate] | – | 0

SMILES | %inhibition [%] | inhibition at 100 µM [%]
C=CC(=O)Nc1cccc(Nc2nc(Nc3ccc(N4CCN(C(C)=O)CC4)cc3OC)ncc2C(F)(F)F)c1 [Rociletinib (CO-1686, AVL-301)] | – | 0
C=CC[N+]1([C@H]2C[C@H]3[C@@H]4CC[C@H]5C[C@H](O)[C@@H](N6CCOCC6)C[C@]5(C)[C@H]4CC[C@]3(C)[C@H]2OC(C)=O)CCCC1 [Rocuronium Bromide] | – | 0
CS(=O)(=O)c1ccc(C2=C(c3ccccc3)C(=O)OC2)cc1 [Rofecoxib] | – | 12.8
O=C(Nc1c(Cl)cncc1Cl)c1ccc(OC(F)F)c(OCC2CC2)c1 [Roflumilast] | – | 5.88
COc1ccc(C2CNC(=O)C2)cc1OC1CCCC1 (stereo not shown) [Rolipram] | – | 0
Cn1c([N+](=O)[O-])cnc1COC(N)=O [Ronidazole] | – | 0
CCCN(CCC)CCc1cccc2c1CC(=O)N2 [Ropinirole HCl] | – | 0
CCCN1CCCC[C@H]1C(=O)Nc1c(C)cccc1C [Ropivacaine] | – | 0
CN(CCOc1ccc(CC2SC(=O)NC2=O)cc1)c1ccccn1 (stereo not shown) [Rosiglitazone HCl] | 0 | –
CN(CCOc1ccc(CC2SC(=O)NC2=O)cc1)c1ccccn1 (stereo not shown) [Rosiglitazone maleate] | 9.239 | –
CN(CCOc1ccc(CC2SC(=O)NC2=O)cc1)c1ccccn1 (stereo not shown) [Rosiglitazone] | 18.44 | –
CC(C)c1nc(N(C)S(C)(=O)=O)nc(-c2ccc(F)cc2)c1/C=C/[C@@H](O)C[C@@H](O)CC(=O)O [Rosuvastatin Calcium] | 0 | –
CC(C)c1nc(N(C)S(C)(=O)=O)nc(-c2ccc(F)cc2)c1/C=C/[C@@H](O)C[C@@H](O)CC(=O)O [Rosuvastatin] | 7.223 | –
CCCN(CCc1cccs1)[C@H]1CCc2c(O)cccc2C1 [Rotigotine] | – | 6.99
Cc1nc(C(=O)NCC(=O)O)c(O)c2ccc(Oc3ccccc3)cc12 [Roxadustat (FG-4592)] | – | 14.8
CC[C@H]1OC(=O)[C@H](C)[C@@H](O[C@H]2C[C@@](C)(OC)[C@@H](O)[C@H](C)O2)[C@H](C)[C@@H](O[C@@H]2O[C@H](C)C[C@H](N(C)C)[C@H]2O)[C@](C)(O)C[C@@H](C)/C(=N\OCOCCOC)[C@H](C)[C@@H](O)[C@]1(C)O [Roxithromycin] | – | 0.445
CNCc1ccc(-c2[nH]c3cc(F)cc4c3c2CCNC4=O)cc1 [Rucaparib (AG-014699,PF-01367338) phosphate] | – | 10.4
NC(=O)c1cn(Cc2c(F)cccc2F)nn1 [Rufinamide] | – | 25.2
Cc1cncc(CN2CCC(=C3c4ccc(Cl)cc4CCc4cccnc43)CC2)c1 [Rupatadine Fumarate] | – | 24.3
C[C@@H]1O[C@@H](OC[C@H]2O[C@@H](Oc3c(-c4ccc(O)c(O)c4)oc4cc(O)cc(O)c4c3=O)[C@H](O)[C@@H](O)[C@@H]2O)[C@H](O)[C@H](O)[C@H]1O [Rutin] | – | 3.42
N#CC[C@H](C1CCCC1)n1cc(-c2ncnc3[nH]ccc23)cn1 [Ruxolitinib (INCB018424)] | 0 | –
COc1ccc([C@H]2CNC(=O)C2)cc1OC1CCCC1 [S- (+)-Rolipram] | – | 0
N#CC[C@H](C1CCCC1)n1cc(-c2ncnc3[nH]ccc23)cn1 [S-Ruxolitinib (INCB018424)] | 18.93 | –
O=C1NS(=O)(=O)c2ccccc21 [Saccharin] | – | 0

SMILES | %inhibition [%] | inhibition at 100 µM [%]
C[C@H](NCc1ccc(OCc2cccc(F)c2)cc1)C(N)=O [Safinamide Mesylate] | 9.23 | –
C[C@H](NCc1ccc(OCc2cccc(F)c2)cc1)C(N)=O [Safinamide] | – | 15
CC(C)(C)NCC(O)c1ccc(O)c(CO)c1 (stereo not shown) [Salbutamol Sulfate] | 6.444 | –
CC(C)(C)NCC(O)c1ccc(O)c(CO)c1 (stereo not shown) [Salbutamol] | 0 | –
O=C(O)c1ccccc1O [Salicylic acid] | 1.324 | –
CC(C)=CCC/C(C)=C/CC/C(C)=C/CSc1ccccc1C(=O)O [Salirasib] | – | 0
OCc1cc(C(O)CNCCCCCCOCCCCc2ccccc2)ccc1O (stereo not shown) [Salmeterol] | – | 3.12
CN1CCN(CCOc2cc(OC3CCOCC3)c3c(Nc4c(Cl)ccc5c4OCO5)ncnc3c2)CC1 [Saracatinib (AZD0530)] | – | 32.3
O=C(O)c1cn(-c2ccc(F)cc2)c2cc(N3CCNCC3)c(F)cc2c1=O [Sarafloxacin HCl] | – | 15.7
COc1cccc(CCc2ccccc2OCC(CN(C)C)OC(=O)CCC(=O)O)c1 (stereo not shown) [Sarpogrelate hydrochloride] | – | 0
N#C[C@@H]1C[C@@H]2C[C@@H]2N1C(=O)[C@@H](N)C12CC3CC(CC(O)(C3)C1)C2 [Saxagliptin hydrate] | – | 8.79
N#C[C@@H]1C[C@H]2C[C@H]2N1C(=O)[C@@H](N)[C@@]12C[C@@H]3C[C@@H](C[C@@](O)(C3)C1)C2 [Saxagliptin] | – | 12.8
CN1[C@@H]2C[C@@H](OC(=O)[C@H](CO)c3ccccc3)C[C@H]1[C@@H]1O[C@@H]12 [Scopolamine HBr] | – | 0
Cc1ncc([N+](=O)[O-])n1CC(C)O (stereo not shown) [Secnidazole] | – | 34.4
CO[C@H]1C[C@H](O[C@@H]2/C(C)=C/C[C@@H]3C[C@@H](C[C@]4(CC[C@H](C)[C@@H](C5CCCCC5)O4)O3)OC(=O)[C@@H]3C=C(C)/C(=N/O)[C@H]4OC/C(=C\C=C\[C@@H]2C)[C@]43O)O[C@@H](C)[C@@H]1O [Selamectin] | – | 13.4
CC(C)N(CCCCOCC(=O)NS(C)(=O)=O)c1cnc(-c2ccccc2)c(-c2ccccc2)n1 [Selexipag] | – | 0
O=C(/C=C\n1cnc(-c2cc(C(F)(F)F)cc(C(F)(F)F)c2)n1)NNc1cnccn1 [Selinexor (KPT-330)] | – | 0
NC(=O)C1CCCc2c1[nH]c1ccc(Cl)cc21 (stereo not shown) [Selisistat (EX 527)] | – | 15.7
Cn1cnc2c(F)c(Nc3ccc(Br)cc3Cl)c(C(=O)NOCCO)cc21 [Selumetinib (AZD6244)] | – | 24.4
CC(C)[C@H](O)C(=O)N[C@@H](C)C(=O)N[C@@H]1C(=O)N(C)CCc2ccccc21 [Semagacestat (LY450139)] | – | 0
NCCc1c[nH]c2ccc(O)cc12 [Serotonin HCl] | – | 8.8
Clc1ccc(C(Cn2ccnc2)OCc2csc3c(Cl)cccc23)c(Cl)c1 (stereo not shown) [Sertaconazole nitrate] | – | 0
